Measurements as given in patent US20110064773A1, “PHARMACEUTICAL COMPOSITIONS COMPRISING A THYROID HORMON AND THEIR THERAPEUTIC USE” (UNIVERSITE JOSEPH FOURIER, priority 2007, published 2011).
Entries after “also recorded” stand apart in the source; their conditions may differ.

Assays:
Type in all cases: in vivo, rat
ZDF rats [1] = assay: Body composition of ZDF rats
Description: At the end of the experimental period, animals were sacrificed by decapitation, in order to avoid the well-known effects of general anesthetics on mitochondrial metabolism. Blood samples were immediately collected and plasma was frozen for subsequent determination of serum metabolites and hormones. Liver, muscles and fat depots were quickly excised and weighed. Liver median lobe was rapidly freeze-clamped. Muscles (plantaris, soleus and gastrocnemius) were frozen in isopentane precooled in liquid nitrogen. Mesenteric fat consisted of adipose tissue surrounding the gastro-intestinal tract from the gastro-oesophageal sphincter to the end of the rectum with special care taken in distinguishing and removing the pancreas. Retroperitoneal fat pad was taken as the distinct depot behind each kidney along the lumbar muscles. Epididymal fat consisted of adipose tissue on top of the epididymis. For subcutaneous depot measurement, a rectangular piece of skin was taken on the right side of each animal from the median line of the abdomen between the spine and the right hip to the first rib. Interscapular brown adipose tissue was removed and dissected free from adjacent muscles and white adipose tissue. The heart ventricles, the right kidney and the spleen were also excised, weighed and frozen.

muscle mitochondria = assay: Rate of muscle mitochondrial oxygen consumption (JO2) of treated Wistar rats; conditions: 250 μg/kg BW/day, vs placebo
Experimental: The major part of the liver and the red part of each quadriceps were rinsed, and chopped into isolation medium (250 mM sucrose, 20 mM Tris-HCl and 1 mM EGTA-Tris, pH 7.4). Nuclei and cell debris were removed by centrifugation at 800 g for 10 min. Mitochondria were then isolated from the supernatant by spinning twice at 8,000 g for 10 minutes. The mitochondrial pellet was resuspended in 0.5 ml of isolation buffer and kept on ice. Mitochondrial protein was measured by the bicinchoninic acid method (Pierce, Rockford, Ill.). The final mitochondrial suspensions were maintained on ice and were used for measurements of oxygen consumption rate.
The rate of mitochondrial oxygen consumption (JO2) was measured at 30° C. in an incubation chamber with a Clark-type O2 electrode filled with 2 ml of incubation medium (125 mM KCl, 10 mM Pi-Tris, 20 mM Tris-HCl, 0.1 mM EGTA, pH 7.2). All measurements were performed using mitochondria (1.0 or 0.2 mg mitochondrial protein/ml for liver and skeletal muscle) incubated either with various substrates: glutamate/malate (5 mM/2.5 mM) and succinate (5 mM), alone or in combination, palmitoyl carnitine (55 μM) and octanoyl carnitine (100 μM). For each substrate, JO2 was recorded in the presence of the substrate alone (State 2) and following the addition of 1 mM ADP (state 3). Oligomycin (1.25 μg/mg protein) was added to the mitochondrial suspension to determine the non-phosphorylating respiratory rate (state 4). The incubation medium was constantly stirred with a built-in electromagnetic stirrer and bar flea. The efficiency of the mitochondrial oxidative phosphorylation was assessed by the state 3/state 4 ratio which measures the degree of control imposed on oxidation by phosphorylation (respiratory control ratio, RCR).

Wistar rats = Wistar rats treated with PTU and IOP (deiodinase inhibition, hypothyroid state) with or without rT3
Experimental: Thyroid Stimulating Hormone (TSH) and thyroxine (T4) were measured by radioimmunoassay with rat standards (RPA 554 Amersham bioscience, RIA FT4-immunotech, for TSH and T4 respectively).
In order to understand the mode of action of the treatments, Wistar rats were treated with pharmacological products that inhibit the synthesis and deiodination of thyroid hormones PTU and IOP.
Animals (Wistar) were submitted to a treatment by propyl-thiouracile (PTU in the drinking water) and iopanoic acid (IOP one sc-injection weekly) inducing a complete inhibition of all deiodinases (types I, II and III). Such treatment is responsible for the induction of a severe hypothyroid state. In addition this treatment impairs the peripheral metabolism of all thyroid hormones by deiodination. Some rats were also submitted to a sub-cutaneous administration of rT3 (2.5 μg/100 g). Three groups were constituted: controls, PTU+IOP and PTU+IOP+rT3 and duration of the experiment was 3 weeks.

[2] = test system: mitochondrial glycerol 3-phosphate dehydrogenase (mGPdH); assay: Mitochondrial glycerol 3-phosphate dehydrogenase (mGPdH) activity in liver mitochondria of treated rats; conditions: Wistar rats; for Mitochondrial GPdH activity: 2.5 μg/100 g continuous, 21 days
Experimental: Mitochondrial glycerol 3-phosphate dehydrogenase (mGPdH) activity was measured on the supernatant of isolated mitochondria after three cycles of freezing-thawing. Forty μg of mitochondria were incubated in a KH2PO4/K2HPO4 buffer (50 mM, pH 7.5) containing 9.3 μM of antimycin A, 5 μM of rotenone and decylubiquinone (50 μM). The reduction of 50 μM dichloro-indophenol (DCIP) by mGPDH was measured spectrophotometrically at 600 nm at 37° C. and enzymatic activity was expressed as μmol·min^−1·mg prot^−1.

ZDF rats [3] = assay: Glycaemia, insulinaemia and pancreas mass in ZDF diabetic rats
Experimental: Rats were genetically obese normoglycemic (Zucker or Fa/Fa), 10-11 week-old diabetic rats (ZDF), genetic non-overweight diabetic (type 2 diabetes) rats (Goto-Kakizaki (GK) model), non-overweight diabetic (type 2 diabetes) rats n0STZ model or normal Wistar rats submitted to an 8-week high-fat high sucrose diet (a model of nutritional induction of insulin resistance).
The day of the study, after a fasted period overnight (18 h), blood samplings will be taken in awaked rats from the tail vein.
Insulin levels were determined with commercial kits (Linco Research).
Glucose and 3-hydroxybutyrate (3-HB) were measured enzymatically and non esterified fatty acid (NEFA) by colorimetric assay (Wako Chemicals).
ZDF diabetic rats are a good model for studying the anti-diabetic treatments, since these animals develop a major hyperglycaemia during their life due to the combination of moderate obesity and pancreas degeneracy. To date, treatments are ineffective when the hyperglycaemia is established.
Then ZDF rats were treated with low doses of rT3 for 21 days (2.5 μg/100 g BW/day) and the glycaemia, insulinaemia were measured after 8, 16 and 21 days.

[4] = PTU+IOP alone vs placebo, or rT3 2.5 μg/100 g added to PTU+IOP
[5] = PTU+IOP alone, or rT3 (2.5 μg/100 g) added to PTU+IOP

For N[C@@H](Cc1ccc(Oc2cc(I)c(O)c(I)c2)c(I)c1)C(=O)O [rT3, 3′,5′,3-triiodothyronine], which “Brown adipose tissue mass” value (ZDF rats [1]; 2.5 μg/100 g BW) is on record?
Its value is “increase”.

And the Muscular mass (ZDF rats [1]; 2.5 μg/100 g BW)?
The Muscular mass was “not affected”.

What about the White adipose tissue (ZDF rats [1]; 2.5 μg/100 g BW) of the same compound?
The White adipose tissue was “seems not to be affected”.

What about the “Fat mass (photography, FIG. 21)” value (ZDF rats [1]; low dose of rT3, 21 days, vs placebo) of the same compound?
Its value is “reduced”.

And the “Muscle mitochondrial respiration, non-phosphorylating (state 4)” value (muscle mitochondria)?
Its value is “failed to substantially affect”.

What about the “Muscle mitochondrial respiration, phosphorylating (state 3)” value (muscle mitochondria) of the same compound?
Its value is “failed to substantially affect”.

What about the “Animal mass (body weight)” value (Wistar rats; 3 weeks, PTU+IOP alone vs controls, or rT3 2.5 μg/100 g sc added to PTU+IOP) of the same compound?
Its value is “enhances the decrease induced by PTU-IOP”.

What about the “Appetite (food intake)” value (Wistar rats; 3 weeks, PTU-IOP with or without rT3 2.5 μg/100 g) of the same compound?
The value was “remains unchanged”.

And the “Energy expenditure (EE)” value (Wistar rats; [4])?
Its value is “enhanced”.

What about the “Respiratory quotient (RQ)” value (Wistar rats; [4]) of the same compound?
Its value is “enhanced”.

What about the “Activity of mGPdH” value (Wistar rats; [5]) of the same compound?
Its value is “stimulates”.

And the “Brown adipose tissue mass” value (Wistar rats; [5])?
The value was “also enhanced”.

What about the “Mitochondrial state 3 respiratory rate with GM, S and GMS” value (Wistar rats; [5]) of the same compound?
The value was “corrected the effect of PTU+IOP”.

And the “Enzymatic activity of mitochondrial glycerol-3-phosphate dehydrogenase” value ([2]; liver mitochondria, high dose 25 μg/100 g)?
The value was “significantly increased”.

And the “Enzymatic activity of mitochondrial glycerol-3-phosphate dehydrogenase (mGPdH)” value ([2]; liver mitochondria, low dose 2.5 μg/100 g, sub-cutaneous pellet)?
Its value is “significantly increased; also recorded: more enhanced”.

What about the “Mitochondrial GPdH activity” value ([2]; intra-peritoneal pump) of the same compound?
Its value is “enhanced”.

What about the “Mitochondrial GPdH activity” value ([2]; sub-cutaneous pump) of the same compound?
Its value is “enhanced”.

And the “Insulin level (blood insulin concentration)” value (ZDF rats [3]; 2.5 μg/100 g BW/day, up to 21 days, placebo progressively decreases)?
Its value is “maintained; also recorded: increasing plasmatic insulin concentration”.

What about the Pancreas mass (ZDF rats [3]; 2.5 μg/100 g BW/day, vs placebo) of the same compound?
Its Pancreas mass is “increased”.

What about the “Glycaemia (blood glucose concentration)” value (ZDF rats [3]; low dose 2.5 μg/100 g BW/day, 8, 16 and 21 days, vs placebo) of the same compound?
Its value is “large reduction; also recorded: decreasing glucose concentration”.
